Measured values taken from patent publication US5460697A, “Method of pulping wood chips with a fungi using sulfite salt-treated wood chips” (priority 1994, dated 1995).
Like-named read-outs stand apart in the source and are kept apart here.

Columns and labels:
[1] = test system: indigenous microorganisms; assay: Effect of sulfite salts on indigenous microorganisms of unsterilized wood chips (plating); assay type: cell-based, indigenous microorganisms of unsterilized aspen wood chips; conditions: for inhibition at 600 µg/mL / inhibition at 1200 µg/mL: read-out: Inhibition Relative to control; for first test: whether the salt inhibits growth of indigenous microorganisms: pass / not pass; for inhibition of growth of indigenous microorganisms (in words): unsterilized wood chips, overall statement
Method: Aspen wood chips (50 g O.D. basis) were soaked in 500 ml of water containing either 0 mg, 781 mg or 1562 mg sodium bisulfite for about 1 hour at room temperature. After soaking, water was drained from the chips.
During the 1 hour soaking the chips soaked up about 31 ml of water. Therefore, the final moisture content of wood was about 61% (wet weight basis) and the final concentration of each chemical on water basis was about 0 μg/ml, 600 μg/ml and 1200 μg/ml.
Three chips were pulled randomly from each flask and plated on potato dextrose agar and tryptic soy agar plates. These plates were incubated at 27° C. for 24 or 27 h and the contaminants were visually observed.
A panel of other sulfur-containing chemicals were analyzed for their ability to inhibit the growth of indigenous microorganisms on unsterilized wood chips in the manner described above. Table 2 describes the various concentrations of these chemicals and the percent inhibition relative to control plates observed.

[2] = test system: indigenous microorganisms; conditions: Lamar et al. 1990; cited from earlier work

O=S(=O)(O)SSS(=O)(=O)O [Sodium Tetrathionate]
inhibition at 600 µg/mL [1]: 0%
inhibition at 1200 µg/mL [1]: 0%

O=S([O-])[O-].[Na+].[Na+] [Sodium Sulfite]
Inhibition Relative to control ([1]; 600 μg/ml): 0%
Inhibition Relative to control ([1]; 1200 μg/ml): 0%
first test: whether the salt inhibits growth of indigenous microorganisms [1]: did not pass the test

CBr [methyl bromide]
inhibition of indigenous microorganisms (in words) [2]: inhibit a number of indigenous microorganisms

O=S(=O)([O-])[O-].[Na+].[Na+] [Sodium Sulfate]
Inhibition Relative to control ([1]; 600 μg/ml): 0%
Inhibition Relative to control ([1]; 1200 μg/ml): 0%
first test: whether the salt inhibits growth of indigenous microorganisms [1]: did not pass the test

O=S([O-])([O-])=S.[Na+].[Na+] [Sodium Thiosulfate]
Inhibition Relative to control ([1]; 600 μg/ml): 0%
Inhibition Relative to control ([1]; 1200 μg/ml): 0%

O=S([O-])O.[K+] [potassium bisulfite]
first test: whether the salt inhibits growth of indigenous microorganisms [1]: passed the first test

O=S(O)S(=O)(=O)O [Sodium meta-Bisulfite]
inhibition at 600 µg/mL ([1]; 600 μg/ml): 100%
inhibition at 1200 µg/mL ([1]; 1200 μg/ml): 100%
first test: whether the salt inhibits growth of indigenous microorganisms [1]: passed the first test
inhibition of growth of indigenous microorganisms (in words) [1]: successfully inhibited the growth of microorganisms

O=S([O-])S(=O)[O-].[Na+].[Na+] [Sodium Hydrosulfite]
first test: whether the salt inhibits growth of indigenous microorganisms [1]: passed the first test
inhibition at 600 µg/mL [1]: 70%
inhibition at 1200 µg/mL [1]: 100%
inhibition of growth of indigenous microorganisms (in words) [1]: successfully inhibited the growth of microorganisms
